Like-named read-outs stand apart in the source and are kept apart here.
Legend:
Experiment in all cases: biochemical
Format in all cases: biochemical
382 unique human kinases [1] = target: T1, 382 unique human kinases (Homo sapiens, UniProt Q96PF2); conditions: kinase TSSK2, compound 10 uM; for remaining activity at 10 µM: read-out: % Enzyme Activity (relative to DMSO controls)
T1 construct: purchased Reaction Biology (HotSpot contract assay)
T1 sequence (Q96PF2 1-358): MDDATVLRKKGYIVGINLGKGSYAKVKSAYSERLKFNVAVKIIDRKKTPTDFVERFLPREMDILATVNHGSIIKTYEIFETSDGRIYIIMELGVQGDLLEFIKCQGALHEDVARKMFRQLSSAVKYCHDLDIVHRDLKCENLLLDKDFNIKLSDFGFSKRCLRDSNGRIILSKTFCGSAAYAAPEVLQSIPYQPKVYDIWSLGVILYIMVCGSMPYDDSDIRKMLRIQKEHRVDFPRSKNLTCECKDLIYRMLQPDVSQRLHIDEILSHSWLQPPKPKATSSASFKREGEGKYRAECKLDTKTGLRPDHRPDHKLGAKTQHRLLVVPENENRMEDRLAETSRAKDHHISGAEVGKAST

382 unique human kinases [2] = target: T2, 382 unique human kinases (Homo sapiens, UniProt P52564); conditions: MKK6, 10 uM; for remaining activity at 10 µM: read-out: % Enzyme Activity (relative to DMSO controls)
T2 construct: purchased Reaction Biology (HotSpot contract assay)
T2 sequence (P52564 1-334): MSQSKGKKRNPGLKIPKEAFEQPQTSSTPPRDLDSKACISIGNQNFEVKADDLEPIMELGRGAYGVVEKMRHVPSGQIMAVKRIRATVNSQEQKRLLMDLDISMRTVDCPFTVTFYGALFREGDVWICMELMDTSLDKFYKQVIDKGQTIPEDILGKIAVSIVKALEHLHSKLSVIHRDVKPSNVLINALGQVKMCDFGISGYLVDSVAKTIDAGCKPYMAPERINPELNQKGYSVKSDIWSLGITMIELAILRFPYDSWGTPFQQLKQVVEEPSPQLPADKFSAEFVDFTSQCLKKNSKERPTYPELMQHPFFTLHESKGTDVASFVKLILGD

382 unique human kinases [3] = target: T3, 382 unique human kinases (Homo sapiens, UniProt Q16512); conditions: PKN1/PRK1, 10 uM; for remaining activity at 10 µM: read-out: % Enzyme Activity (relative to DMSO controls)
T3 construct: purchased Reaction Biology (HotSpot contract assay)

382 unique human kinases [4] = target: T4, 382 unique human kinases (Homo sapiens, UniProt P24723); conditions: PKCeta, 10 uM; for remaining activity at 10 µM: read-out: % Enzyme Activity (relative to DMSO controls)
T4 construct: purchased Reaction Biology (HotSpot contract assay)

382 unique human kinases [5] = target: T5, 382 unique human kinases (Homo sapiens, UniProt Q00535); conditions: for remaining activity at 10 µM: read-out: % Enzyme Activity (relative to DMSO controls)
T5 construct: purchased Reaction Biology (HotSpot contract assay)

382 unique human kinases [6] = target: T6, 382 unique human kinases (Homo sapiens, UniProt P00533, L858R); conditions: kinase EGFR (L858R), compound 10 uM; for remaining activity at 10 µM: read-out: % Enzyme Activity (relative to DMSO controls)
T6 construct: purchased Reaction Biology (HotSpot contract assay)

382 unique human kinases [7] = target: T7, 382 unique human kinases (Homo sapiens, UniProt Q13555); conditions: CAMK2g, 10 uM; for remaining activity at 10 µM: read-out: % Enzyme Activity (relative to DMSO controls)
T7 construct: purchased Reaction Biology (HotSpot contract assay)

382 unique human kinases [8] = target: T8, 382 unique human kinases (Homo sapiens, UniProt P37023); conditions: ALK1/ACVRL1, 10 uM; for remaining activity at 10 µM: read-out: % Enzyme Activity (relative to DMSO controls)
T8 construct: purchased Reaction Biology (HotSpot contract assay)

382 unique human kinases [9] = target: T9, 382 unique human kinases (Homo sapiens, UniProt Q08881); conditions: ITK, 10 uM; for remaining activity at 10 µM: read-out: % Enzyme Activity (relative to DMSO controls)
T9 construct: purchased Reaction Biology (HotSpot contract assay)
T9 sequence (Q08881 1-620): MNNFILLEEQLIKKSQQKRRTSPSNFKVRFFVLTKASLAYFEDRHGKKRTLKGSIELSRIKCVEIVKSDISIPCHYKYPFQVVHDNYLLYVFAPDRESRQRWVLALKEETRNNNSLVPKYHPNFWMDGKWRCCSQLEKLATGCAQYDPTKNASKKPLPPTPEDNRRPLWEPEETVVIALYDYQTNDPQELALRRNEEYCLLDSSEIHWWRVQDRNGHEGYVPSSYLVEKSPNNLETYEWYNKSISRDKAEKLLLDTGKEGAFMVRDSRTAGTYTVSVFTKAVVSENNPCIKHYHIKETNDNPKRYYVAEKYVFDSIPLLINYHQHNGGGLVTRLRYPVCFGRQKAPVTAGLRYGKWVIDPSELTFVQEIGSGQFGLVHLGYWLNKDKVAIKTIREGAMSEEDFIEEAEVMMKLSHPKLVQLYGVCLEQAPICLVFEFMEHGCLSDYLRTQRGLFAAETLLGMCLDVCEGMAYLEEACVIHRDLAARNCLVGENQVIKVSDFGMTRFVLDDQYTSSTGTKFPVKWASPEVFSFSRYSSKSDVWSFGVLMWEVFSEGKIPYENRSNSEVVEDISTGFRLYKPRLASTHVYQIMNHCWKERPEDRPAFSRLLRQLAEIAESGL

382 unique human kinases [10] = target: T10, 382 unique human kinases (Homo sapiens, UniProt Q9BYP7); conditions: WNK3, 10 uM; for remaining activity at 10 µM: read-out: % Enzyme Activity (relative to DMSO controls)
T10 construct: purchased Reaction Biology (HotSpot contract assay)

382 unique human kinases [11] = target: T11, 382 unique human kinases (Homo sapiens, UniProt Q16832); conditions: DDR2, [ATP] 5 µM
T11 construct: purchased Reaction Biology (HotSpot contract assay)
T11 sequence (Q16832 22-855): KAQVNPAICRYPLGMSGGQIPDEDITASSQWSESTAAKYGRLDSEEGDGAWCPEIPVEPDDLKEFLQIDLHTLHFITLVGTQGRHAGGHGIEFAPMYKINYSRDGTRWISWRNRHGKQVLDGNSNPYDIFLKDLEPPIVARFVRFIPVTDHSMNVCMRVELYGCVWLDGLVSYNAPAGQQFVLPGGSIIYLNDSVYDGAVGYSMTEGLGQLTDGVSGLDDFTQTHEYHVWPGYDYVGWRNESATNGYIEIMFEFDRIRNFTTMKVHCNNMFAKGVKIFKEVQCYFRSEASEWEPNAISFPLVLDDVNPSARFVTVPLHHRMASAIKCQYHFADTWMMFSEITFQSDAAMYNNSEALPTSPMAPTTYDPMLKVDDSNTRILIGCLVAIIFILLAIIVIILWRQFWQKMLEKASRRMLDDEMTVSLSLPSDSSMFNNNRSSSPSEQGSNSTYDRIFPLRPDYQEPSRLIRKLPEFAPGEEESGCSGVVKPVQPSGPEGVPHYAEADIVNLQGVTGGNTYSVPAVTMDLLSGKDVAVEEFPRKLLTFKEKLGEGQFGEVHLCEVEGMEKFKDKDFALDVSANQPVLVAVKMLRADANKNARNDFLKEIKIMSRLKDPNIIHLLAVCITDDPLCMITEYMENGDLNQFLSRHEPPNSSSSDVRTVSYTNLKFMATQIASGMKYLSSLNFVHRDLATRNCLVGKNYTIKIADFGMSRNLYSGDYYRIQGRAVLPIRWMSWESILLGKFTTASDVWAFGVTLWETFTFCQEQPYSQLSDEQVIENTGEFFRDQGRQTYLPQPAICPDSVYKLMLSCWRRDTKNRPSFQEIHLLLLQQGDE

[12] = kinase CDK5/p25, compound 10 uM
[13] = compound 10 uM, read-out: % Enzyme Activity (relative to DMSO controls)

T8 sequence (P37023 22-503): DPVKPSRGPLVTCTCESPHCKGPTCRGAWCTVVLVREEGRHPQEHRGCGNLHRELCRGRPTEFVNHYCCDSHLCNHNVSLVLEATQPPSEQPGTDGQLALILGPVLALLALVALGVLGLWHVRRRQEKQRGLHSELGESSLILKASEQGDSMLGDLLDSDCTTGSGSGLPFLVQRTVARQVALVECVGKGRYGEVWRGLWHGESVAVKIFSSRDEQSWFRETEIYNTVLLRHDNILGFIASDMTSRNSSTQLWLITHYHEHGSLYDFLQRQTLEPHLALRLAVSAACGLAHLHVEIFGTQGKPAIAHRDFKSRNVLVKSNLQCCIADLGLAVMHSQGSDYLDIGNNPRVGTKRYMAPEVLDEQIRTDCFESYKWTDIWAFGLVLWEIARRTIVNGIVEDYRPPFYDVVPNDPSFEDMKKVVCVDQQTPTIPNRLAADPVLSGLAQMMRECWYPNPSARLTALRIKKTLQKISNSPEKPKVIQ
T3 sequence (Q16512 whole entry): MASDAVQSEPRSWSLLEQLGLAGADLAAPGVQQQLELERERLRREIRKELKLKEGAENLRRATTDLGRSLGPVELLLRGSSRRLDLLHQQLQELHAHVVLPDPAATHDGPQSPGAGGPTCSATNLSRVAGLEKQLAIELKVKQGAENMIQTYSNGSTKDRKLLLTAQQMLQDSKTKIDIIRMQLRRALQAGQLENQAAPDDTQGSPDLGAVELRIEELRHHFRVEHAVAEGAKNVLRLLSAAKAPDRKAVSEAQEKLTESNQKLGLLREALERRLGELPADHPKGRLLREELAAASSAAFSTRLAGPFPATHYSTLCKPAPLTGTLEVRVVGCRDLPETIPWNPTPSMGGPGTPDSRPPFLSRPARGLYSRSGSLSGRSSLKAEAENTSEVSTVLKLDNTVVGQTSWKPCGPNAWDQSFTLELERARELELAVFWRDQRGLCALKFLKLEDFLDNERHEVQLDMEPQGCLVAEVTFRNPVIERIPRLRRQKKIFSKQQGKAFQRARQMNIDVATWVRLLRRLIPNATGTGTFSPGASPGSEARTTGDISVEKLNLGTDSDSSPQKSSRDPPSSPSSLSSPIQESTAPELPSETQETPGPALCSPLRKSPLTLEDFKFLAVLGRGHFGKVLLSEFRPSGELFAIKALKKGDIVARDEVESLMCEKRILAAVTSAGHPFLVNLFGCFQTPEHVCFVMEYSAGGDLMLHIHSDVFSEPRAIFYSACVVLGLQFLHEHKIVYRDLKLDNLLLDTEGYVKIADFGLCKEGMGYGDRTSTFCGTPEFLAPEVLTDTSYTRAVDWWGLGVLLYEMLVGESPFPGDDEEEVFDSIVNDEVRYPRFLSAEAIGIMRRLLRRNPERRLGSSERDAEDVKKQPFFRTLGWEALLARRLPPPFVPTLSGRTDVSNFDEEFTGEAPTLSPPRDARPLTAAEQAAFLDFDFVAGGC
T4 sequence (P24723 whole entry): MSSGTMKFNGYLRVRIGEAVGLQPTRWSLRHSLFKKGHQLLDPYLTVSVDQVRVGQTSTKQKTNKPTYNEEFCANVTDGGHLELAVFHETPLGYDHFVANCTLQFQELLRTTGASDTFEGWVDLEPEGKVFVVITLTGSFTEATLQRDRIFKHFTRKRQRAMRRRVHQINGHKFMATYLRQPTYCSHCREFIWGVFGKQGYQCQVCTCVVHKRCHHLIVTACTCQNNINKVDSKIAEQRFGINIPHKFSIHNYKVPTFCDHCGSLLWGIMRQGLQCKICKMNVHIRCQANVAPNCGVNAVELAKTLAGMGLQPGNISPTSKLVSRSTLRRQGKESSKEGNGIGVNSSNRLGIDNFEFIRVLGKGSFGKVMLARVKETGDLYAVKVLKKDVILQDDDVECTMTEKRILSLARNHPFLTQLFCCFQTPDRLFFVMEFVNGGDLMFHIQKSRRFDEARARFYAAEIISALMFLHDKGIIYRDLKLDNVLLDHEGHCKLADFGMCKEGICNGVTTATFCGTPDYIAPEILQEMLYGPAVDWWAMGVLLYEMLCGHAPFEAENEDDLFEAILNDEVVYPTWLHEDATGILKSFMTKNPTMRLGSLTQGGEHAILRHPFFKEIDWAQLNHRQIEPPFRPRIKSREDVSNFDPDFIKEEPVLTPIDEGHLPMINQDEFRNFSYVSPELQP
T5 sequence (Q00535 whole entry): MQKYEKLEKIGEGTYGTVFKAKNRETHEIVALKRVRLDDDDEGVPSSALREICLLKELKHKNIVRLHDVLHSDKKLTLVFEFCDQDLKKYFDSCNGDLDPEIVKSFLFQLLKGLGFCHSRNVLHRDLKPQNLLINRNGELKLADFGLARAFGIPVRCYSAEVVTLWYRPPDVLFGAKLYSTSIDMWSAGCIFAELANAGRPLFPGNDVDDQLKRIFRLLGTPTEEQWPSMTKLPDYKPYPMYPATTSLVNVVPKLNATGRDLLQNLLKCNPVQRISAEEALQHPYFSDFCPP
T10 sequence (Q9BYP7 whole entry): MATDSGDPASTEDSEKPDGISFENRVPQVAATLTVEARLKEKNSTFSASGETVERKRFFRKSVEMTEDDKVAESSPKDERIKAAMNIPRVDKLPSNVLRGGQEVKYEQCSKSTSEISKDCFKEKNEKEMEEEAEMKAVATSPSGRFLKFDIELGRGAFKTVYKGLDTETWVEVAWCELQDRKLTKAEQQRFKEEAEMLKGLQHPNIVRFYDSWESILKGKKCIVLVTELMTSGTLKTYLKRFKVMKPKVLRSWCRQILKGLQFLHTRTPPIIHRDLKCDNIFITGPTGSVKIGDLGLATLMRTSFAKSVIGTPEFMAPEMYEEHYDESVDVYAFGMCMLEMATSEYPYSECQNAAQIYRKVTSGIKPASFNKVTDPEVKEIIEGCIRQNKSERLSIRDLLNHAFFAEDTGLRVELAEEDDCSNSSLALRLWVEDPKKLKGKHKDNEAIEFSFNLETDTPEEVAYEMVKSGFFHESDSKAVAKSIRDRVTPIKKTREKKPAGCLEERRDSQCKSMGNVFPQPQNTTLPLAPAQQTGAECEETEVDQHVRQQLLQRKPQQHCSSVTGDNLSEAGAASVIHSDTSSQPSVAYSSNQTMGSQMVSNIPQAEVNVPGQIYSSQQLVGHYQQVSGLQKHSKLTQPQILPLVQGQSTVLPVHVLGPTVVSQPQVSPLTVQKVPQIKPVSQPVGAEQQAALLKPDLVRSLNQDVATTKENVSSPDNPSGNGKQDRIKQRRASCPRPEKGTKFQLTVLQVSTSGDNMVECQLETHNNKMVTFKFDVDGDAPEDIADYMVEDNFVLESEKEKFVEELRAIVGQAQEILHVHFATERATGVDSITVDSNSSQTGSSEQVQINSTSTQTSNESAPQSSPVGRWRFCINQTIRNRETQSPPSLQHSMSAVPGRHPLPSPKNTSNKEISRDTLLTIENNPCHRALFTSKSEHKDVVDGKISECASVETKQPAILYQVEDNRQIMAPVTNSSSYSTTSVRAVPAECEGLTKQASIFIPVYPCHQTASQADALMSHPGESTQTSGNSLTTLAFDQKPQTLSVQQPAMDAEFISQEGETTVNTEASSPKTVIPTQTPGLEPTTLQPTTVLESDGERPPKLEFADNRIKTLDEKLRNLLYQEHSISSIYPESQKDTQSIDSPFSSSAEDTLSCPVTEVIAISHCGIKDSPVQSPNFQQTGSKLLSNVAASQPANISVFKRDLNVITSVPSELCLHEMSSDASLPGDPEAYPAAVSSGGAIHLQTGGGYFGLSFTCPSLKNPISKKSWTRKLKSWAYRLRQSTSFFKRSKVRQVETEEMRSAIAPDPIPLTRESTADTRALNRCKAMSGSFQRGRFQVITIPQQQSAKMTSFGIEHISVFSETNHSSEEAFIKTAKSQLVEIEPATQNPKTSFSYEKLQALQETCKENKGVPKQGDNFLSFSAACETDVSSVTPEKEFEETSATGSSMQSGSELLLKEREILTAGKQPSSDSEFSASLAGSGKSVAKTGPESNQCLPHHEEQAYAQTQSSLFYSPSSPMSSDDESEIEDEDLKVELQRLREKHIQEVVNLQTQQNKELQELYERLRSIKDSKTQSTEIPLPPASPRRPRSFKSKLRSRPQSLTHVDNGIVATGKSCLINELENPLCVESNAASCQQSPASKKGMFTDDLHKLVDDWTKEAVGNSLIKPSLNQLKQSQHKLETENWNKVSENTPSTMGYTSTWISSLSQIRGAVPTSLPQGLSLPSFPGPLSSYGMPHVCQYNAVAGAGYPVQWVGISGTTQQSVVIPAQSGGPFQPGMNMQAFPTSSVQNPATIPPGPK
T7 sequence (Q13555 whole entry): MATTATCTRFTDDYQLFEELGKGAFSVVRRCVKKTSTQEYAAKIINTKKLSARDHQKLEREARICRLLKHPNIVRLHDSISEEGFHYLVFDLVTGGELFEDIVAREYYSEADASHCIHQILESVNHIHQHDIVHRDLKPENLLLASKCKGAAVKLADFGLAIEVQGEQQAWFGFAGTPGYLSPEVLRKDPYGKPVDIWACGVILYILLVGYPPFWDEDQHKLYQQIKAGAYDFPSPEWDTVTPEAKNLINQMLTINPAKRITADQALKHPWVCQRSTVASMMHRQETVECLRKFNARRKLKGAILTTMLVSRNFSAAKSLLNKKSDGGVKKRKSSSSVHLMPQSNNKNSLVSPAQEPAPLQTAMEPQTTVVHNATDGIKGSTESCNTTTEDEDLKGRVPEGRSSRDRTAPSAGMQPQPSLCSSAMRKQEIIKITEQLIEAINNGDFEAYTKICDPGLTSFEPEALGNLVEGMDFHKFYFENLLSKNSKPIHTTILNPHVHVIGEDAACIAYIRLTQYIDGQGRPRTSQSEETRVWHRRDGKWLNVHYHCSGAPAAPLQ

SMILES	remaining activity at 10 µM (382 unique human kinases [1]) [%]	remaining activity at 10 µM (382 unique human kinases [2]) [%]	remaining activity at 10 µM (382 unique human kinases [3]) [%]	remaining activity at 10 µM (382 unique human kinases [4]) [%]	remaining activity at 10 µM (382 unique human kinases [5]; CDK5/p35, 10 uM) [%]	remaining activity at 10 µM (382 unique human kinases [5]; [12]) [%]	remaining activity at 10 µM (382 unique human kinases [6]) [%]	remaining activity at 10 µM (382 unique human kinases [7]) [%]	remaining activity at 10 µM (382 unique human kinases [8]) [%]	remaining activity at 10 µM (382 unique human kinases [9]) [%]	remaining activity at 10 µM (382 unique human kinases [10]) [%]	remaining activity at 10 µM (382 unique human kinases [11]; [13]) [%]	other results
CC(C)c1cc(-c2n[nH]c(=O)n2-c2ccc3c(ccn3C)c2)c(O)cc1O [Ganetespib (STA9090)]	90.3	72.9	71.7	75.8	70.1	80.9	88.8						
CC(C)c1cc(-c2n[nH]c(=O)n2-c2ccc3c(ccn3C)c2)c(O)cc1O [Ganetespib]								98.8	95.6	95.6	98.1	14.5	remaining activity at 1 µM (382 unique human kinases [11]; compound 1 uM, read-out: % Enzyme Activity (relative to DMSO controls)): 51.9%
CCNC(=O)c1noc(-c2cc(C(C)C)c(O)cc2O)c1-c1ccc(CN2CCOCC2)cc1 [Luminespib (AUY-922)]	102	100	75.6	106	103	102	97						% Enzyme Activity (relative to DMSO controls) (382 unique human kinases [1]): 101.80%; % Enzyme Activity (relative to DMSO controls) (382 unique human kinases [2]): 98.81%; % Enzyme Activity (relative to DMSO controls) (382 unique human kinases [3]): 73.04%; % Enzyme Activity (relative to DMSO controls) (382 unique human kinases [4]): 105.31%; % Enzyme Activity (relative to DMSO controls) (382 unique human kinases [5]; CDK5/p35, 10 uM): 102.70%; % Enzyme Activity (relative to DMSO controls) (382 unique human kinases [5]; [12]): 102.12%; % Enzyme Activity (relative to DMSO controls) (382 unique human kinases [6]): 96.48%
CCNC(=O)c1noc(-c2cc(C(C)C)c(O)cc2O)c1-c1ccc(CN2CCOCC2)cc1 [Luminespib]								106	105	94.1	112	107	% Enzyme Activity (relative to DMSO controls) (382 unique human kinases [7]): 105.88%; % Enzyme Activity (relative to DMSO controls) (382 unique human kinases [8]): 102.87%; % Enzyme Activity (relative to DMSO controls) (382 unique human kinases [9]): 92.96%; % Enzyme Activity (relative to DMSO controls) (382 unique human kinases [10]): 110.27%; % Enzyme Activity (relative to DMSO controls) (382 unique human kinases [11]; compound 10 uM): 105.89%

From article PMC8550792, “Evolution of kinase polypharmacology across HSP90 drug discovery” (Cell Chemical Biology, 2021)
